{"source": "patent US8163805B2", "about": "“Small molecule antagonists of Bcl-2 family proteins” (The Regents of the University of Michigan, priority 2001, dated 2012)", "key": {"[1]": {"target": "T1, Bcl-2 (Homo sapiens, UniProt P10415)", "T1 construct": "purchased Santa Cruz Biotechnology", "T1 sequence (P10415 1-205 limits assumed)": "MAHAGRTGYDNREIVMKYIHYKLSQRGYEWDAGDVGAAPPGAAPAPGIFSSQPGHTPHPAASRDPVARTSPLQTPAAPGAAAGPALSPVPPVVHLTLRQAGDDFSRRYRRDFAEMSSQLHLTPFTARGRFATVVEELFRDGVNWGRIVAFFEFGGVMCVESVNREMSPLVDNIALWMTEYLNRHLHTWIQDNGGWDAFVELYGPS", "assay": "FP binding assay, Flu-Bad-25 peptide and GST-fusion Bcl-2 (FIG. 4, 45)"}, "[2]": {"tested_on": "MCF-7 breast cancer cell line", "assay": "Growth inhibition with TAXOL in fixed ratio, MCF-7", "assay_type": "cell-based, human", "settings": "combinations in a fixed ratio to TAXOL"}, "[3]": {"target": "T2, Bcl-XL (Homo sapiens, UniProt Q07817, DEL45-84)", "T2 construct": "His-tag (N); made in house", "T2 sequence (Q07817 with tags, fused parts or gaps DEL45-84 limits assumed)": "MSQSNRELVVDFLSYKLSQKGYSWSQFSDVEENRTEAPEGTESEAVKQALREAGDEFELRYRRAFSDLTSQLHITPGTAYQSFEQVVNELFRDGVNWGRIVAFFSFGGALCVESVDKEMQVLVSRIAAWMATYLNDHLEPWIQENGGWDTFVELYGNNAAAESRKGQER", "assay": "FP binding assay, Flu-Bid 21-residue peptide and Bcl-XL (FIG. 5, 46)"}, "[4]": {"target": "T2, Bcl-XL", "assay": "15N HSQC NMR binding to Bcl-XL"}, "[5]": {"assay": "Elimination half-life in humans", "assay_type": "in vivo", "excerpt": "In some embodiments, the present invention contemplates that the longer residency of the (+)-gossypol enantiomer is potentially beneficial in certain prolonged gossypol treatments methods. Therefore, in some embodiments, the (+)-gossypol enantiomer is potentially more toxic to cells. […]"}, "[6]": {"tested_on": "PC-3 xenograft", "settings": "Table 14; mice treated with gossypol and/or radiation"}, "[7]": {"tested_on": "MDA-MB-231 breast cancer cells", "assay": "Annexin-V flow cytometry apoptosis, MDA-MB-231", "assay_type": "cell-based, human", "settings": "24 hours", "method": "Further tests using Annexin-V flow cytometry (FACS) assays were conducted to more quantitatively assess the ability of gossypol to induce apoptosis in MDA-MB-231 breast cancer cells. […] It was observed that 5.0 μM of gossypol induced 59% of the MDA-MB-231 cells to undergo apoptosis. While the present invention is not limited to a particular mechanism(s), it is contemplated that induction of apoptosis by gossypol is dose-dependent. At administrations of 10.0 and 20.0 μM, respectively, gossypol induced 74% and 96% of cancer cells, again respectively, to undergo apoptosis. MDA-MB-231 cells overexpress Bcl-2 and Bcl-XL.\nIn still further embodiments, the present invention used cell level detection of apoptotic events by flow cytometry. Cells that had undergone apoptotic events were detected by flow cytometry using a FACSCAN instrument (Becton Dickinson, Franklin Lakes, N.J.) with 488-nm laser line and analyzed using CELL QUEST software (Becton Dickinson, Franklin Lakes, N.J.). Phosphatidylserine exposed on the outside of the cells (one of the major characteristics of apoptosis) was determined by TACSTM Annexin V-FITC Kit (Trevigen, Gaithersburg, Md.). Annexin V-FITC fluorescence is detected in FL-1, and propidium iodide was detected in FL-2. (Hail Jr., and R. Lotan, R. Cancer Epidemiol. Biomarkers Prev., 9:1293-1301 (2000)).\nApoptosis was further detected and quantified using Annexin-V-fluorescence assays. […] Cells were collected and washed with PBS and stained with Annexin-V-Fluorescein and propidium iodide (PI) following standard protocols. Stained cells were analyzed with a flow cytometer (Becton Dickinson) using 488 nm excitation and a 515 nm bandpass filter for fluorenscein detection, and a >600 nm filter for PI detection."}, "[8]": {"tested_on": "A549 non-small cell lung carcinoma xenograft", "assay": "A549 non-small cell lung carcinoma xenograft, (−)-gossypol with paclitaxel", "settings": "Table 13; mice treated with gossypol and/or Paclitaxel"}, "[9]": {"tested_on": "human breast cancer MDA-MB-231 (2LMP) xenograft"}, "[10]": {"tested_on": "MDA-MB-231 cells", "assay": "5 day MTT cell growth assay, MDA-MB-231", "assay_type": "cell-based, human", "settings": "Homo sapiens, MDA-MB-231, 120 h, read-out: IC50, inhibition of MDA-MB-231 cell growth", "description": "For example, the ability of gossypol compounds to inhibit MDA-MB-231 cell growth was tested in a 5 day MTT assay.\nCells were seeded in 24 or 96-well-plates and gossypol compounds were prepared at 2-10 fold dilutions in suitable medium. Inhibition of cell viability was determined by treating the cells with the gossypol compounds for 24 hrs. […] Inhibition of cell growth was determined by treating cells with gossypol compounds for 3-6 days. […] In some embodiments, MTT assays are used to determine cell inhibition.\nAbsorbance at 540 nm is used to measure the amount of formazan product."}, "[11]": {"tested_on": "human breast cancer xenograft MDA-MB-231", "settings": "for inhibition of tumor growth: three weeks, day 29", "description": "The potential of gossypol compounds as anticancer therapeutics was further evaluated in MDA-231 xenograft mice. […] A control group of five mice received no gossypol. In the treated mice, gossypol was administered daily in two different oral doses, a 30 and a 90 mg/kg dose, for three weeks.\nA group of 10 mice received an orally administered daily dose of 30 mg/kg gossypol starting at day 7 and lasting for 4 weeks. […] Each experimental group had 10 animals.\nAs a positive control, TAXOTERE was used at a dose of 7.5 mg/kg. Control group mice received either no treatment or vehicle alone. To achieve statistic significance, a minimum of 10 mice per group was used in the combination regimes.\nFor all tests, mice were randomized and then injected in the fat pad with 1-5×10^6 cells prepared in serum-free medium. The animals were measured and weighed twice each week during the treatment period, followed by twice a week measurements for an additional 4-6 weeks. A gross visual necropsy of each animal was performed at death or terminal sacrifice."}, "[12]": {"tested_on": "androgen-independent prostate PC-3 xenograft", "assay": "PC-3 xenograft, (−)-gossypol and radiation (Example 20)", "assay_type": "in vivo, nude mice", "settings": "Table 15; mice treated with gossypol and/or radiation", "method": "In this experiment, 60 male 5 to 6 week old NCI athymic NCr-nu/nu nude mice were inoculated in each flank with an injection of about 5×10^6 PC-3 cells. The best 40 xenograft recipients were used. Tumors averaged about 70 mm^3. (−)-Gossypol compounds were first dissolved in ethanol and diluted with sterile water within 5 min to a final ethanol concentration of 10% prior to each administration. Irradiated test animals were restrained, placed under the X-ray head, and covered with lead shields to ensure that the tumor area was exposed to radiation. All oral administrations of (−)-gossypol and 10% alcohol were given by gavage.\nThe 40 best xenograft mice were divided into experimental groups as follows: radiation only (Groups 1 and 2), 2 Gy administered 5 times/week for 3 weeks, and daily oral administration of 10% alcohol (as vehicle control); radiation plus gossypol (Groups 3 and 4), 2 Gy administered 5 times a week for 3 weeks, and 10 mg/kg of (−)-gossypol administered orally 5 times/week for 4 weeks (8 mice each Group); gossypol only (Groups 5 and 6), 10 mg/kg (−)-gossypol administered orally every day for 4 weeks (8 mice each Group); vehicle control (Groups 7 and 8), daily oral administration of 10% alcohol (8 mice each Group as vehicle control); large tumor animals (combination of Groups 9-12), tumors allowed to reach 500 mm^3.\nOther remaining tumors in this group appear pale yellowish and soft as compared with that in control group with hard solid and reddish appearance, indicating tumor blood supply was inhibited."}, "[13]": {"tested_on": "androgen independent prostate cancer PC-3 xenograft", "assay": "PC-3 xenograft, (−)-gossypol alone and with docetaxel (Example 22)", "settings": "for weight loss: mice treated with gossypol"}, "[14]": {"target": "T2, Bcl-XL", "assay": "FP binding assay, Flu-Bak-BH3 16-mer tracer and His-fused Bcl-XL", "settings": "FIG. 3, 6A, 6B"}, "[15]": {"settings": "Table 8, docetaxel 7.5 mg/kg i.v. q week for 3 weeks, alone"}}, "note": "Where two headings read alike, the source gives them in different places.", "data": [{"smiles": "Cc1cc2c(C(C)C)c(O)c(O)c(C=O)c2c(O)c1-c1c(C)cc2c(C(C)C)c(O)c(O)c(C=O)c2c1O", "note": "[(+)-gossypol]", "values": [{"measurement": "inhibition of binding between Bid BH3 peptide and Bcl-2", "setting": "[1]; FIG. 4", "value": "directly inhibit binding between Bid BH3 peptide and Bcl-2"}, {"measurement": "IC50", "setting": "[2]", "value": 22900, "unit": "nM"}, {"measurement": "inhibition of binding between Bad BH3 peptide and Bcl-XL", "setting": "[3]", "value": "directly inhibit binding between Bad BH3 peptide and Bcl-XL"}, {"measurement": "binding to Bcl-XL by NMR", "setting": "[4]", "value": "bind to the BH3 binding groove in Bcl-XL"}, {"measurement": "T1/2 of elimination relative to (−)-gossypol", "setting": "[5]", "value": 29, "unit": "times"}]}, {"smiles": "Cc1cc2c(C(C)C)c(O)c(O)c(C=O)c2c(O)c1-c1c(C)cc2c(C(C)C)c(O)c(O)c(C=O)c2c1O", "note": "(racemic) [gossypol]", "values": [{"measurement": "weight loss", "setting": "[6]", "value": "There was no significant weight loss"}, {"measurement": "cells induced to undergo apoptosis", "setting": "[7]; 5.0 μM", "value": 59, "unit": "%"}, {"measurement": "cells induced to undergo apoptosis", "setting": "[7]; 10.0 μM", "value": 74, "unit": "%"}, {"measurement": "cells induced to undergo apoptosis", "setting": "[7]; 20.0 μM", "value": 96, "unit": "%"}, {"measurement": "weight loss", "setting": "[8]", "value": "There was no weight loss in mice"}, {"measurement": "weight loss or death", "setting": "[9]; Table 8, mice treated with gossypol", "value": "There was no weight loss or death in"}, {"measurement": "IC50", "setting": "[10]", "value": 2000, "unit": "nM"}, {"measurement": "inhibition of tumor growth", "setting": "[11]; 30 mg/kg oral daily", "value": "more than 70%"}, {"measurement": "inhibition of tumor growth", "setting": "[11]; 90 mg/kg oral daily", "value": "more than 70%"}, {"measurement": "weight loss or deaths", "setting": "[11]; 30 and 90 mg/kg oral daily", "value": "No weight loss or deaths"}, {"measurement": "weight loss", "setting": "[12]", "value": "There was no significant weight loss"}, {"measurement": "tumor growth inhibition on day 42", "setting": "[13]; Table 9, PC-3 flank xenografts (~100 mm^3 at start), NCr-nu nude mouse, 15 mg/kg daily p.o., alone", "value": "(15.6% on day 42). The (−)-gossypol"}, {"measurement": "weight loss", "setting": "[13]; Table 9", "value": "There was no weight loss in mice"}, {"measurement": "tumor growth inhibition on day 56 compared to vehicle controls", "setting": "[13]; Table 10, PC-3 flank xenografts (~120 mm^3 at start), NCr-nu nude mouse, daily p.o. for 28 days, alone (racemic 15 mg/kg)", "value": "(39% on day 56, p = 0.145) compared"}, {"measurement": "weight loss", "setting": "[13]; Table 10", "value": "There was no weight loss in mice"}]}, {"smiles": "CC1=C(C2=C(C)C(=O)c3c(c(C=O)c(O)c(O)c3C(C)C)C2=O)C(=O)c2c(C=O)c(O)c(O)c(C(C)C)c2C1=O", "note": "(racemic) [gossypolone]", "values": [{"measurement": "inhibition of binding between Bak BH3 peptide and Bcl-XL", "setting": "[14]", "value": "competitive inhibition of Bak BH3 peptide binding to Bcl-XL protein"}]}, {"smiles": "CC(=O)O[C@@]12CO[C@@H]1C[C@H](O)[C@@]1(C)C(=O)[C@H](O)C3=C(C)[C@@H](OC(=O)[C@H](O)[C@@H](NC(=O)OC(C)(C)C)c4ccccc4)C[C@@](O)([C@@H](OC(=O)c4ccccc4)[C@H]21)C3(C)C", "note": "[Docetaxel, docetaxel, reference compound]", "values": [{"measurement": "tumor growth inhibition", "setting": "[9]; [15]", "value": "achieved about 70% tumor growth"}, {"measurement": "tumors grew back, time after treatment stopped", "setting": "[9]; [15]", "value": "back 2-3 weeks after treatment"}, {"measurement": "tumor growth in second round of treatment", "setting": "[9]; second round from day 45, tumors about 2,000 mm^3", "value": "continued to grow"}]}, {"smiles": "CCN=Cc1c(O)c(O)c(C(C)C)c2cc(C)c(-c3c(C)cc4c(C(C)C)c(O)c(O)c(C=NCC)c4c3O)c(O)c12", "note": "[(−)-gossypol ethyl Schiff's base]", "values": [{"measurement": "inhibition of binding between Bak BH3 peptide and Bcl-XL", "setting": "[14]", "value": "time-dependent inhibition"}]}, {"smiles": "CSCC[C@H](NC(=O)[C@H](CCCNC(=N)N)NC(=O)[C@H](CCCNC(=N)N)NC(=O)[C@H](CC(C)C)NC(=O)[C@H](CCC(=O)O)NC(=O)[C@H](CCCNC(=N)N)NC(=O)CNC(=O)[C@H](Cc1ccc(O)cc1)NC(=O)[C@H](CCCNC(=N)N)NC(=O)[C@H](CCC(N)=O)NC(=O)[C@H](C)NC(=O)[C@H](C)NC(=O)[C@H](Cc1c[nH]c2ccccc12)NC(=O)[C@H](CC(C)C)NC(=O)[C@H](CC(N)=O)NC(=O)c1ccc2c(c1)C1(OC2=O)c2ccc(O)cc2Oc2cc(O)ccc21)C(=O)N[C@@H](CO)C(=O)N[C@@H](CC(=O)O)C(=O)N[C@@H](CCC(=O)O)C(=O)N[C@@H](Cc1ccccc1)C(=O)N[C@H](C(=O)N[C@@H](CC(=O)O)C(=O)N[C@@H](CO)C(=O)N[C@@H](Cc1ccccc1)C(=O)N[C@@H](CCCCN)C(=O)N[C@@H](CCCCN)C(=O)O)C(C)C", "note": "[Bad 25-mer BH3 peptide, reference compound]", "values": [{"measurement": "Kd", "setting": "[1]; FIG. 26", "value": 6.9, "unit": "nM"}]}]}
